Assay results: patent US6166049A, “Use of an antagonist of PPARα and PPARγ for the treatment of syndrome X” (SmithKline Beecham P.L.C., priority 1996, dated 2000)

What was measured:
C57 Bl/KsJ db/db mouse [1] = experiment: Blood glucose in the C57 Bl/KsJ db/db mouse; type: in vivo; settings: mean ± SD, n = 9-10; for Blood glucose, pre-dose: treated group before dosing (baseline)
Method: (§1) 2) Determination of Compound Efficacy on Blood Glucose and Plasma Lipids in the C57 Bl/KsJ db/db Mouse
(§2) This is paralleled by glycosuria and polyuria with a compensatory increase in water intake. Circulating serum triglycerides and free fatty acids are also elevated.
(§3) Compounds are administered by dietary admixture (powdered RM3 diet) for 14 days and blood glucose measured in samples taken from the tail vein of conscious non-fasted mice at appropriate intervals during the treatment period. After the 14 day treatment period, mice are killed by cervical dislocation and blood obtained from the severed jugular veins. Triglyceride and non-esterified fatty acids are measured in samples of serum obtained by centrifugation.

human PPARγ = target: T1, human PPARγ (Homo sapiens, UniProt P37231); experiment: hPPARγ agonist activity, transactivation reporter gene assay; type: cell-based; settings: read-out: EC50 for activation of human PPARγ
T1 construct: expressed in transfected cells
T1 sequence (P37231 173-476 isoform P37231-2): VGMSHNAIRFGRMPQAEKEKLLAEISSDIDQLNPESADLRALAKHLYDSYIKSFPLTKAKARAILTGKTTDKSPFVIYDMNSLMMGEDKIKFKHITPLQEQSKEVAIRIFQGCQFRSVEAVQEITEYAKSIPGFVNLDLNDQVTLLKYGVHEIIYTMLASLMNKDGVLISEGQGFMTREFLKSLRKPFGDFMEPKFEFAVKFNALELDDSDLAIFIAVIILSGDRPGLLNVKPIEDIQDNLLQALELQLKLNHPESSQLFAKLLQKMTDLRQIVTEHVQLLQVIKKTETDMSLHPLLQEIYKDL
Text: (§4) PPARα and γ agonist activity may be assessed by use of the methodology, or similar methodology, to that disclosed by Lehmann et al: Journal of Biological Chem., 270, 12953-12956 (1995).
In one aspect PPARγ agonist compounds are those which stimulate a PPARγ chimeric receptor containing the PPAR gamma ligand binding site linked to a suitable reporter gene construct such as luciferase or chloramphenicol acetyltransferase (CAT). This activity can be identified by using the methods of Lehmann et al. J Biol. Chem., ibid.
(b) PPARγ agonist activity by detecting stimulation of a PPARγ chimeric receptor containing the PPAR gamma ligand binding site linked to a suitable reporter gene construct such as luciferase or chloramphenicol acetyltransferase (CAT).
A suitable PPARγ chimeric receptor comprises the amino acids of the ligand binding domain, for example amino acids 173-476, of the human PPARγ receptor fused to amino acids 1-147 (DNA binding domain) of the gal 4 yeast transcription factor.
(§5) A suitable reporter gene construct is a luciferase or chloramphenicol acetyltransferase (CAT).
A suitable luciferase reporter gene construct contains gal 4 DNA binding elements in HEK-293 cells. […]
(§6) Compound agonist effects at human PPARα and PPARγ were assessed using a transactivation reporter gene assay, based on that described by Lehman et al. (1995) J Biol Chem 270, 12953-12956.

C57 Bl/KsJ db/db mouse [2] = experiment: Serum lipids in the genetically diabetic C57 Bl/KsJ db/db mouse; type: in vivo; settings: 0.3 umol/kg body wt, dietary admixture, after 14 days, *** p < 0.001, mean ± SD
Method: as §1, §2, §3

human PPARα = target: T2, human PPARα (Homo sapiens, UniProt Q07869); experiment: hPPARα agonist activity, transactivation reporter gene assay; type: cell-based; settings: read-out: EC50 for activation of human PPARα
T2 construct: expressed in transfected cells
T2 sequence (Q07869 239-466 limits assumed): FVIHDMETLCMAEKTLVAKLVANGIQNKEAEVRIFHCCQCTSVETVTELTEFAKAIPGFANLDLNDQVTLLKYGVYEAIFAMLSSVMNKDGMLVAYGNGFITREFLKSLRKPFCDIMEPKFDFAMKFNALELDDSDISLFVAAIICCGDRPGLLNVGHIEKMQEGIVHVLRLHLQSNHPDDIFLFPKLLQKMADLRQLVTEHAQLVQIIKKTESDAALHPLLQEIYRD
Text: as §4
In one aspect PPARα agonist compounds are those which stimulate a PPAR alpha chimeric receptor consisting of the PPAR alpha ligand binding site linked to a suitable reporter gene construct such as luciferase or chloramphenicol acetyltransferase (CAT). This activity can be identified by using the methods outlined by Lehmann et al., ibid.
(a) PPARα agonist activity by detecting stimulation of a PPAR alpha chimeric receptor consisting of the PPAR alpha ligand binding site linked to a suitable reporter gene construct; and
A suitable PPARα chimeric receptor comprises the amino acids of the ligand binding domain, for example amino acids 281-468, of the human PPARα, fused to amino acids 1-147 (DNA binding domain) of the gal 4 yeast transcription factor.
as §5
A suitable luciferase reporter gene construct contains gal 4 DNA binding elements in HEK-293 cells.
1) Determination of hPPARα and hPPAR-γ Agonist Activity
as §6

Compound: CN(CCOc1ccc(C[C@H](OCC(F)(F)F)C(=O)O)cc1)c1nc2ccccc2o1 [(S)-3-[4-[2-[N-(2-benzoxazolyl)-N-methylamino]ethoxy]phenyl]-2-(2,2,2-trifluoroethoxy)propanoic acid]
- Blood glucose, post dose (13 days) (C57 Bl/KsJ db/db mouse [1]; EXPT I, dietary admixture, 13 days, control 34.0 ± 7.9, *** p < 0.001): 11.0 ± 3.6 mmol/L
- Blood glucose, pre-dose (C57 Bl/KsJ db/db mouse [1]; EXPT I, control 15.5 ± 3.7): 15.6 ± 4.0 mmol/L
- Blood glucose, Day 1 (C57 Bl/KsJ db/db mouse [1]; EXPT II, dietary admixture, Day 1, control 17.2 ± 3.7): 14.1 ± 3.7 mmo/l
- Blood glucose, Day 2 (C57 Bl/KsJ db/db mouse [1]; EXPT II, dietary admixture, Day 2, control 19.9 ± 2.7, ** p < 0.01): 15.0 ± 3.4 mmo/l
- Blood glucose, Day 3 (C57 Bl/KsJ db/db mouse [1]; EXPT II, dietary admixture, Day 3, control 20.2 ± 3.9, *** p < 0.001): 12.2 ± 5.1 mmo/l
- Blood glucose, Day 5 (C57 Bl/KsJ db/db mouse [1]; EXPT II, dietary admixture, Day 5, control 21.2 ± 1.9, *** p < 0.001): 11.3 ± 3.6 mmo/l
- Blood glucose, Day 7 (C57 Bl/KsJ db/db mouse [1]; EXPT II, dietary admixture, Day 7, control 23.4 ± 2.0, *** p < 0.001): 11.7 ± 3.7 mmo/l
- Blood glucose, pre-dose (C57 Bl/KsJ db/db mouse [1]; EXPT II, control 16.5 ± 2.9): 16.2 ± 4.3 mmo/l
- EC50 (human PPARγ): 70 nM
- Serum non-esterified fatty acids (C57 Bl/KsJ db/db mouse [2]; control 2.58 ± 0.45): 1.28 ± 0.15 mmol/L
- Serum triglycerides (C57 Bl/KsJ db/db mouse [2]; control 3.78 ± 1.34): 2.58 ± 0.45 mmol/L
- EC50 (human PPARα): 2500 nM
